# Literature values in patent EP0882446A1, “Antimicrobial skin cleansing compositions” (GOJO INDUSTRIES,INC., priority 1997, dated 1998).
# Experiments:
# [1] = at levels below about 3 percent by weight
# [2] = system: wide spectrum of bacteria; conditions: against a wide spectrum of bacteria; reported
compound,measurement,setting,value
"Cc1cc(O)cc(C)c1Cl [PCMX, 4-chloro-3,5-dimethyl phenol]",toxicity and irritation to human skin,[1],non-toxic and non-irritating
same,antimicrobial activity relative to phenol,[2],60 times
